Measured values reported in patent US20050267126A1, “Compounds derived from aryl carbamates, preparation thereof and uses of same” (priority 2002, published 2005).

Biological target: T1, human isoform h5-HT4e (Homo sapiens, UniProt Q13639)
T1 construct: expressed in transfected cells; host or cells: rat glial cells, stably expressing; membranes prepared from homogenized cells
Assay: displacement of radiolabelled ligand [3H]-GR113808, affinity constant Ki
Format: binding
Settings: [3H]-GR113808 0.2 nM; membranes of rat glial cells stably expressing h5-HT4e; 25° C., 30 min
Experimental: The compounds of the invention were evaluated by measuring their affinity constant Ki determined by displacement of a radiolabelled ligand [^3H]—GR113808 in rat glial cells stably expressing the human isoform h5-HT4e.
Confluent glial cells were washed twice with PBS and centrifuged at 300 g for 5 min. The pellet was used immediately and the cells were suspended in 10 volumes of HEPES (50 mM, pH 7.4, 4° C.) then homogenized in a teflon homogenizer and centrifuged at 40,000 g for 20 min. The pellet was again suspended in 15 volumes of HEPES. Binding displacement experiments were carried out in […] of 50 mM HEPES buffer containing 20 μl of the radiolabelled ligand [^3H]—GR113808 at a concentration of 0.2 nM for the isoform h5-HT4e or at a concentration equal to one-half the Kd of the radioligand for the other isoforms expressed in COS cells, 20 μl of competitor ligand at 7 different concentrations and 50 μl of membrane preparation (100-200 μg of protein determined by the Bradford method). Binding was carried out at 25° C. for 30 min and the reaction was stopped by rapid vacuum filtration (Brandel Harvester) on Whatman GF/B filters preincubated in 0.1% PEI to reduce nonspecific binding.
Membrane-bound radioactivity was retained on the filter, which was cut and washed with cold buffer (50 mM Tris-HCl, pH 7.4) and incubated overnight in 4 ml of scintillation fluid. Radioactivity was measured in a liquid scintillation counter (Beckmann LS 6500C). Binding data were obtained by computer-assisted linear regression. (Graph Prism Program, Graph Pad Software. Inc., San Diego, Calif.)

T1 sequence (Q13639 1-378 isoform Q13639-5): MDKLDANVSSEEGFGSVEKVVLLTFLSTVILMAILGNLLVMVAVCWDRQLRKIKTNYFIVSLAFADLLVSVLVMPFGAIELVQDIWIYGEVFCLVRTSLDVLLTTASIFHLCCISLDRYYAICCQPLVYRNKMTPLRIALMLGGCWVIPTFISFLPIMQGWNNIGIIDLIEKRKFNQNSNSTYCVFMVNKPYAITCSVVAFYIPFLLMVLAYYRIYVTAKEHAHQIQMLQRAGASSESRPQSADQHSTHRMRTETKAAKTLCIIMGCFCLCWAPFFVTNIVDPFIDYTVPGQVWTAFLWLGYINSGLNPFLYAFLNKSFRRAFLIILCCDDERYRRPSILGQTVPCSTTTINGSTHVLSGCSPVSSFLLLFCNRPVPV

SMILES | Ki
CCOc1ccccc1NC(=O)OCCN1CCN(c2cccc(NC(=O)C3=CCCN(C)C3)c2)CC1 [Example 21, 2-(4-{3-[(1-methyl-1,2,5,6-tetrahydro-pyridine-3-carbonyl)-amino]-phenyl}-piperazin-1-yl)-ethyl-N-(2-ethoxy-phenyl)carbamate] | 0.13 nM
CCOc1ccccc1NC(=O)OCCN1CCN(c2cccc(NC(=O)CCN)c2)CC1 [Example 42, 2-{4-[3-(3-amino-propionylamino)-phenyl]-piperazin-1-yl}-ethyl-N-(2-ethoxy-phenyl)carbamate] | 0.17 nM
CCOc1ccccc1NC(=O)OCCN1CCN(c2cccc(NC(=O)C(N)Cc3ccc(O)cc3)c2)CC1 (centres unmarked) [Example 44, 2-(4-{3-[2-amino-3-(4-hydroxy-phenyl)-propionylamino]-phenyl}-piperazin-1-yl)-ethyl-N-(2-ethoxy-phenyl)carbamate] | 0.18 nM
CCOc1ccccc1NC(=O)OCCN1CCN(c2cccc(NC(=O)NCC3CCCN3CC)c2)CC1 (centres unmarked) [Example 57, 2-(4-{3-[3-(1-ethyl-pyrrolidin-2-ylmethyl)-ureido]-phenyl}-piperazin-1-yl)-ethyl-N-(2-ethoxy-phenyl)carbamate] | 0.09 nM

Results, then the compound that gave them:

Ki | SMILES
0.24 nM | CCOc1ccccc1NC(=O)OCCN1CCN(c2cccc(NC(=O)N3CCC(N4CCCC4)CC3)c2)CC1 [Example 59, 2-(4-{3-[(4-pyrrolidin-1-yl-piperidine-1-carbonyl)-amino]-phenyl}-piperazin-1-yl)-ethyl-N-(2-ethoxy-phenyl)carbamate]
0.2 nM | CCOc1ccccc1NC(=O)OCCN1CCN(c2cccc(NC(=O)NCCCN3CCN(C)CC3)c2)CC1 [Example 60, 2-[4-(3-{3-[3-(4-methyl-piperazin-1-yl)-propyl]-ureido}-phenyl)-piperazin-1-yl]-ethyl-N-(2-ethoxy-phenyl)carbamate]
0.16 nM | CCOc1ccccc1NC(=O)OCCN1CCN(c2cccc(C(=O)NCCN3CCCCC3)c2)CC1 [Example 78, 2-(4-{3-[2-piperidin-1-yl-ethylcarbamoyl]-phenyl}-piperazin-1-yl)-ethyl-N-(2-ethoxy-phenyl)carbamate]
0.75 nM | CCOc1ccccc1NC(=O)OCCN1CCN(c2cccc(C(=O)N(C)CCN(C)C)c2)CC1 [Example 105, 2-(4-{3-[(2-dimethylamino-ethyl)-methyl-carbamoyl]-phenyl}-piperazin-1-yl)-ethyl N-(2-ethoxy-phenyl)-carbamate]
